Assay results as given in patent publication US12485110B2, “Use of ergothioneine for extending lifespan or improving healthspan” (NANJING NUTRABUILDING BIO-TECH CO., LTD., priority 2022, dated 2025).
“Also recorded” adds a separate entry of the source.

What was measured:
C. elegans [1] = experiment: Lifespan assay (Automated Lifespan Machine); type: in vivo; conditions: for Maximum lifespan: 95th percentile of lifespans; for Median lifespan: N2 wild type, day 0 = day 1 of adulthood; for Mean lifespan: area under survival curve; for Lifespan / survival relative to vehicle control (in words): 5.0 mM (highest treatment group)
Text: N2 (Bristol) wild type strain has been used in this application.
To prevent chemical modification or metabolism of the test article by the food bacteria, worms were fed on a lawn of UV-killed bacteria (UV-i bacteria). An overnight culture of E. coli strain WP-2 was pelleted, washed, filtered, and irradiated. A suspension of UV-i bacteria was spotted on NGM agar containing Streptomycin to inhibit the growth of contaminating bacteria. The quantity and distribution of food bacteria were calibrated to ensure adequate access to food for the duration of assay while maintaining visibility of the worms.
The ALM used herein is based on the Caenorhabditis elegans lifespan machine published by Stroustrup et. al (Stroustrup, N. et al. The Caenorhabditis elegans Lifespan Machine. Nat Methods 10, 665-670 (2013)), with proprietary modifications to improve temperature stability and image acquisition. The scanner unit consists of a modified EPSON V850 and images are processed and analyzed using the ALM software (see id.). The machine time-of-death calls are trained and validated using the “storyboarding” feature of the ALM software.
The lifespan assay was designed and performed according to published and validated methods (Amrit, F. R. G., Ratnappan, R., Keith, S. A. & Ghazi, A. The C. elegans lifespan assay toolkit. Methods 68, 465-475 (2014)), using a modified version of the Automated Lifespan Machine (Stroustrup, N. et al. The Caenorhabditis elegans Lifespan Machine. Nat Methods 10, 665-670 (2013)). Worms were age synchronized by bleaching and eggs were plated directly onto NGM agar seeded with UV-i bacteria (Day 1, hatch). On Day 3, when the worms had reached the late L4 stage, they were transferred to dishes containing 100 μM 5-Fluorodeoxyuridine (FUdR) to suppress progeny. On day 5, the worms were washed off the dishes, and 30-50 worms were plated on each scanner dish. Plates were immobilized inverted on the bed of an Automated Lifespan Machine which scanned two images per hour of the plates continuously for the next 40 days.
Time of death calls exported from the ALM software was analyzed and plotted using the Lifelines software package developed by Cam Davidson-Pilon et. al (Lifelines Version: v0.25.9). Additional analysis performed using the OASIS2 analysis software (Seong Kyu Han et. al. OASIS 2: online application for survival analysis 2 with features for the analysis of maximal lifespan and healthspan in aging research. Oncotarget. 7:56147-56152. (2016)).
The lifespan assay was initiated by expanding all replicate groups to more than 1000 worms, then synchronizing by bleaching and allowing larval worms to hatch and arrest. To eliminate the effect of bacterial metabolism and growth on lifespan of C. elegans (wild type, and not over express β-amyloid peptide) worms, synchronized worms were only exposed to dead food bacteria. To suppress progeny, worms were transferred to media containing 5-Fluorodeoxyuridine (FUdR) within 54-60 hours post-plating. Worms were inspected 24 and 48 hours after this transfer to confirm infertility. Finally, the worms were inspected for general health and morphology before transferring to scanner plates. The scanner plates were incubated for an additional 2 days and inspected again before loading onto scanners.
To obtain high-resolution lifespan data and eliminate confounding factors such as worm handling and operator bias, lifespan data was collected using an Automated Lifespan Machine (ALM) (Stroustrup, N. et al. The Caenorhabditis elegans Lifespan Machine. Nat Methods 10, 665-670 (2013)). Three biological replicates, derived from synchronizing three independently maintained lines of N2 worms, were distributed across instruments. Images of the worms were then collected for the next 35 days with no interruption or manipulations. Some plates were excluded after quality checks, but plate number and worm count for all replicates exceeded the threshold for statistical significance (Table 1, row 1).

C. elegans [2] = experiment: Movement and healthspan analysis (worm activity, morphology, circularity); type: in vivo
Text: Worm movement was tracked from the images acquired by the ALM during the lifespan assay. Worm size and movement features were extracted and analyzed using custom software.
To measure healthspan, active worms were identified using the ALM scanner images from the lifespan assay (see Example 2). The worms' spatial location on the plate and their morphology were quantified throughout their lifespan to assess healthspan.
Worm Activity serves as a proxy for animal health. Changes in spatial distribution of the worms between time points is used to derive aggregate movement for the population over time. Worm Activity is described by two complementary measurements of aggregate movement, Centroid Distance and Spatial Distribution: • Centroid Distance calculates a geometric center for each individual worm, and then measures the minimum collective distance that a group of worms moved between time points. It achieves measurement of the changes in spatial distribution between time-points. • Spatial Distribution uses changes in worm contours between time points to measure the changes in the spatial distribution of the worms' bodies. The normalized distribution of these distances in the population provides a measure of how much the group of worms altered their positions and posture on the plate between two time-points.
For both of these Activity metrics, a plot with higher numbers indicates good health, and all measures are normalized to fall between 0 and 1.
Worm morphology is measured from the worm contours detected in the images. In the process of aging, worms become shorter and stouter over time and their shape is an indicator of their overall health and biological age. The Length is calculated from the central spline fitted to the worm contour and Width is measured from each worm's widest point. The worms' posture also changes with age as they lose the ability to maintain an elongated position. Average Circularity measures how close the shape and posture come to being enclosed by a circle.
Each of these measures are obtained by averaging data for all active worms detected on a plate, then averaging across different replicate plates of the same condition. All measurements are based on worms that are still alive and moving at the time of quantification. All measures start when worms are placed on the scanner at day 3 of adulthood.
Average Circularity. The Average Circularity Assay indicates worm heath by describing how closely the shape and posture of the worms is enclosed within a circle. Healthy, active worms maintain an elongated, albeit sinusoidal posture. As unhealthy and aged worms lose muscle function, they increasingly adopt a curled, bunched, or folded state in addition to a stout and wrinkled morphology.

C[N+](C)(C)[C@@H](Cc1c[nH]c(=S)[nH]1)C(=O)[O-] [Ergo, Ergothioneine]
Age in days at 25% mortality (C. elegans [1]; 0.1 mM): 17.97 days
Age in days at 50% mortality (C. elegans [1]; 0.1 mM): 24.16 days
Age in days at 75% mortality (C. elegans [1]; 0.1 mM): 28.15 days
Age in days at 90% mortality (C. elegans [1]; 0.1 mM): 30.83 days
Age in days at 100% mortality (C. elegans [1]; 0.1 mM): 39 days
Dose dependence of lifespan (Kaplan-Meier, FIG. 4A) (C. elegans [1]; 0.1 mM, 0.5 mM and 5.0 mM): dose-dependent increase in lifespan
Maximum lifespan (C. elegans [1]; 0.1 mM): 33.2 days
Median lifespan (C. elegans [1]; 0.1 mM): 24.2 days
Mean lifespan (C. elegans [1]; 0.1 mM): 23.4 days
Age in days at 25% mortality (C. elegans [1]; 0.5 mM): 18.05 days
Age in days at 50% mortality (C. elegans [1]; 0.5 mM): 24.22 days
Age in days at 75% mortality (C. elegans [1]; 0.5 mM): 28.37 days
Age in days at 90% mortality (C. elegans [1]; 0.5 mM): 30.84 days
Age in days at 100% mortality (C. elegans [1]; 0.5 mM): 37.26 days
Maximum lifespan (C. elegans [1]; 0.5 mM): 33.3 days
Median lifespan (C. elegans [1]; 0.5 mM): 24.2 days
Mean lifespan (C. elegans [1]; 0.5 mM): 23.5 days
Age in days at 25% mortality (C. elegans [1]; 5.0 mM): 21.04 days
Age in days at 50% mortality (C. elegans [1]; 5.0 mM): 25.92 days
Age in days at 75% mortality (C. elegans [1]; 5.0 mM): 29.73 days
Age in days at 90% mortality (C. elegans [1]; 5.0 mM): 32.05 days
Age in days at 100% mortality (C. elegans [1]; 5.0 mM): 38.81 days
Lifespan / survival relative to vehicle control (in words) (C. elegans [1]): higher survival than the vehicle control at all timepoints
Lifespan / survival relative to vehicle control (in words) (C. elegans [1]; listed as Ergothioneine): significant positive increase in lifespan; also recorded: statistically significant shift in survival
Lifespan increase compared with Resveratrol positive control (C. elegans [1]; 5.0 mM vs 0.1 mM Resveratrol, log-rank tests): similarly to, but slightly less than the Resveratrol positive control
Maximum lifespan (C. elegans [1]; 5.0 mM): 34.6 days
Median lifespan (C. elegans [1]; 5.0 mM): 25.9 days
Mean lifespan (C. elegans [1]; 5.0 mM): 25.3 days
Aggregate movement (Centroid Distance and Spatial Distribution, FIGS. 5A-5B) (C. elegans [2]; 5 mM, over the duration of lifespan): more vigorous movement
Average circularity (FIG. 7) (C. elegans [2]; ergothioneine-treated worms vs control, peaking at around 16 days): only slight differences
Worm morphology (length, width, area, FIGS. 6A-6C) (C. elegans [2]; up to the 5 mM dosage, over the lifespan): did not produce detectable changes in morphology
